Results published in US4443436A, “C-20-Modified macrolide derivatives of the macrolide antibiotics tylosin, desmycosin, macrocin, and lactenocin” (Eli Lilly and Company, priority 1982, dated 1984).
Values after ≈ are worked out from the molar mass of the structure shown. Like-named read-outs stand apart in the source and are kept apart here.

Assays:
[1] = tested on: Streptococcus pneumoniae Park I; test: microbe, parasite or virus in culture; format: cell-based
[2] = tested on: Streptococcus pyogenes C203; test: In vivo protection of mice experimentally infected with S. pyogenes C203; settings: mice, doses given 1 and 4 hours post-infection; for ED50: Streptococcus pyogenes
Experimental: The C-20 modified derivatives of this invention have shown in vivo antimicrobial activity against experimentally-induced infections in laboratory animals. When two doses of test compound were administered to mice experimentally infected with S. pyogenes C203, the activity observed was measured as an ED50 value [effective dose in mg/kg to protect 50% of the test animals: see Warren Wick, et al., J. Bacteriol. 81, 233-235 (1961)].

[3] = tested on: Staphylococcus aureus; test: MIC, broth-dilution microtiter test, Staphylococcus aureus; format: cell-based; settings: broth-dilution microtiter
Excerpt: (§1) The MIC's in Table X were obtained using conventional broth-dilution microtiter tests.

[4] = tested on: Staphylococcus aureus S13E; test: MIC, standard agar-dilution assay, Staphylococcus aureus S13E; format: cell-based
[5] = tested on: Haemophilus influenzae R252; test: MIC, standard agar-dilution assay, Haemophilus influenzae R252; format: cell-based
[6] = tested on: Pasteurella multocida 60A; test: MIC, broth-dilution microtiter test, Pasteurella multocida 60A; format: cell-based
Excerpt: as §1

[7] = tested on: Streptococcus pyogenes C203; test: MIC, standard agar-dilution assay, Streptococcus pyogenes C203; format: cell-based
[8] = tested on: Mycoplasma gallisepticum; test: MIC, broth-dilution microtiter test, Mycoplasma gallisepticum; format: cell-based; settings: Mycoplasma gallisepticum, broth-dilution microtiter
Excerpt: as §1

[9] = tested on: Pasteurella multocida 17E; test: MIC, broth-dilution microtiter test, Pasteurella multocida 17E; format: cell-based
Excerpt: as §1

[10] = tested on: Streptococcus bovis 80; test: MIC, broth-dilution microtiter test, Streptococcus bovis 80; format: cell-based
Excerpt: as §1

[11] = tested on: Staphylococcus epidermidis EPI2; test: MIC, standard agar-dilution assay, Staphylococcus epidermidis EPI2; format: cell-based; settings: Staphylococcus epidermidis EPI2, agar dilution
[12] = tested on: Pasteurella hemolytica 22C; test: MIC, broth-dilution microtiter test, Pasteurella hemolytica 22C; format: cell-based
Excerpt: as §1

[13] = tested on: Streptococcus Group 9960; test: MIC, standard agar-dilution assay, Streptococcus Group 9960; format: cell-based
[14] = tested on: Staphylococcus aureus V41; test: MIC, standard agar-dilution assay, Staphylococcus aureus V41; format: cell-based
[15] = tested on: Mycoplasma hyorhinis; test: MIC, broth-dilution microtiter test, Mycoplasma hyorhinis; format: cell-based
Excerpt: as §1

[16] = tested on: Staphylococcus epidermidis EPI1; test: MIC, standard agar-dilution assay, Staphylococcus epidermidis EPI1; format: cell-based
[17] = tested on: Staphylococcus aureus X400; test: MIC, standard agar-dilution assay, Staphylococcus aureus X400; format: cell-based
[18] = tested on: Streptococcus Group D X66; test: MIC, standard agar-dilution assay, Streptococcus Group D X66; format: cell-based
[19] = tested on: Mycoplasma hyopneumoniae; test: MIC, broth-dilution microtiter test, Mycoplasma hyopneumoniae; format: cell-based
Excerpt: as §1

[20] = tested on: Mycoplasma synoviae; test: MIC, broth-dilution microtiter test, Mycoplasma synoviae; format: cell-based
Excerpt: as §1

[21] = tested on: Pasteurella multocida; test: Oral (gavage) treatment of Pasteurella multocida-infected chicks; format: in vivo, one-day-old chicks
Experimental: Many of the C-20 modified derivatives of this invention have also shown in vivo antibacterial activity against infections induced by gram-negative bacteria. Tables XII and XIII summarize the results of tests in which illustrative compounds were evaluated against Pasteurella infection in one-day-old chicks. The compounds were administered parenterally or orally after challenge of the chicks with Pasteurella multocida (0.1 ml of a 10^-4 dilution of a twenty-hour tryptose broth culture of an avian P. multocida given subcutaneously). In these tests, unless indicated otherwise, all non-medicated infected chicks died within 24 hours of Pasteurella challenge. In the tests summarized in Table XII the compounds were administered by subcutaneous injection at a dosage of 30 mg/kg, 1 and 4 hours post-challenge of the chicks with P. multocida. In the test summarized in Table XIII the compounds were administered by gavage at 1 and 5 hours post-challenge of the chicks with P. multocida.

[22] = tested on: Staphylococcus aureus X1.1; test: MIC, standard agar-dilution assay, Staphylococcus aureus X1.1; format: cell-based
[23] = tested on: Haemophilus influenzae Holt; test: MIC, standard agar-dilution assay, Haemophilus influenzae Holt; format: cell-based
[24] = C203, sc, subcutaneous, read-out: ED50, Subcutaneous
[25] = C203, oral, read-out: ED50, Oral
[26] = Mycoplasmoides gallisepticum, read-out: MIC
[27] = Staphylococcus epidermidis, EPI1

## CCC1OC(=O)CC(O)C(C)C(OC2OC(C)C(O)C(N(C)C)C2O)C(CCOc2ccc(OC)cc2)CC(C)C(=O)C=CC(C)=CC1COC1OC(C)C(O)C(OC)C1OC (stereo not shown) [Compound 35, 20-DH-20-O-(p-Methoxyphenyl)desmycosin]
[1]; Streptococcus pneumoniae
  MIC: 1 µg/mL (≈ 1.14 µM)
[2]; [24]
  ED50: 1.6 mg/kg
[2]; [25]
  ED50: 11 mg/kg
[3]; read-out: MIC
  MIC: 0.39 µg/mL (≈ 0.443 µM)
[4]; Staphylococcus aureus, S13E
  MIC: 0.25 µg/mL (≈ 0.284 µM)
[5]; Haemophilus influenzae, R252
  MIC: 16 µg/mL (≈ 18.2 µM)
[6]; Pasteurella multocida, 60A
  MIC: 12.5 µg/mL (≈ 14.2 µM)
[7]; Streptococcus pyogenes, C203
  MIC: 1 µg/mL (≈ 1.14 µM)
[8]; [26]
  MIC: 0.39 µg/mL (≈ 0.443 µM)
[9]; Pasteurella multocida, 17E
  MIC: 12.5 µg/mL (≈ 14.2 µM)
[10]; Streptococcus equinus, 80
  MIC: 1.56 µg/mL (≈ 1.77 µM)
[11]; read-out: MIC
  MIC: 0.12 µg/mL (≈ 0.136 µM)
[12]; Pasteurella hemolytica 22C, broth-dilution microtiter, read-out: MIC
  MIC: 25 µg/mL (≈ 28.4 µM)
[13]; GROUP9960, Streptococcus Group 9960, agar dilution, read-out: MIC
  MIC: 8 µg/mL (≈ 9.09 µM)
[14]; Staphylococcus aureus, V41
  MIC: 0.25 µg/mL (≈ 0.284 µM)
[15]; Mycoplasma hyorhinis, broth-dilution microtiter, read-out: MIC
  MIC: > 50 µg/mL
[16]; [27]
  MIC: 0.25 µg/mL (≈ 0.284 µM)
[17]; Staphylococcus aureus, X400
  MIC: 0.25 µg/mL (≈ 0.284 µM)
[18]
  MIC: 4 µg/mL (≈ 4.55 µM)
[19]; Mesomycoplasma hyopneumoniae
  MIC: 6.25 µg/mL (≈ 7.1 µM)
[20]; Mycoplasmopsis synoviae
  MIC: 0.78 µg/mL (≈ 0.886 µM)
[21]; 1.5 g/gal equivalent
  Number of Deaths/Number tested: 1/10
[21]; 2.0 g/gal equivalent
  Number of Deaths/Number tested: 4/10
[22]; Staphylococcus aureus, X1.1
  MIC: 0.25 µg/mL (≈ 0.284 µM)

## CCC1OC(=O)CC(O)C(C)C(OC2OC(C)C(O)C(N(C)C)C2O)C(CCOc2ccc(C(=O)c3ccccc3)cc2)CC(C)C(=O)C=CC(C)=CC1COC1OC(C)C(O)C(OC)C1OC (stereo not shown) [Compound 37, 20-DH-20-O-(p-Benzoylphenyl)desmycosin]
[2]; [24]
  ED50: 7.2 mg/kg
[2]; [25]
  ED50: 18 mg/kg
[3]; read-out: MIC
  MIC: 0.19 µg/mL (≈ 0.199 µM)
[4]; Staphylococcus aureus, S13E
  MIC: 0.25 µg/mL (≈ 0.262 µM)
[5]; Haemophilus influenzae, R252
  MIC: 16 µg/mL (≈ 16.8 µM)
[6]; Pasteurella multocida 60A, avian isolate, broth-dilution microtiter, read-out: MIC
  MIC: 25 µg/mL (≈ 26.2 µM)
[8]; [26]
  MIC: 0.19 µg/mL (≈ 0.199 µM)
[9]; Pasteurella multocida, 17E
  MIC: 12.5 µg/mL (≈ 13.1 µM)
[10]; Streptococcus equinus, Streptococcus bovis 80, broth-dilution microtiter, read-out: MIC
  MIC: 0.19 µg/mL (≈ 0.199 µM)
[11]; read-out: MIC
  MIC: 0.12 µg/mL (≈ 0.126 µM)
[12]; Pasteurella, 22C
  MIC: 12.5 µg/mL (≈ 13.1 µM)
[13]; GROUP9960
  MIC: 0.5 µg/mL (≈ 0.524 µM)
[14]; Staphylococcus aureus, V41
  MIC: 0.25 µg/mL (≈ 0.262 µM)
[15]; Mycoplasma
  MIC: 0.78 µg/mL (≈ 0.817 µM)
[16]; [27]
  MIC: 0.25 µg/mL (≈ 0.262 µM)
[17]; Staphylococcus aureus, X400
  MIC: 0.25 µg/mL (≈ 0.262 µM)
[18]
  MIC: 0.25 µg/mL (≈ 0.262 µM)
[19]; Mesomycoplasma hyopneumoniae, Mycoplasma hyopneumoniae, broth-dilution microtiter, read-out: MIC
  MIC: 0.19 µg/mL (≈ 0.199 µM)
[20]; Mycoplasmopsis synoviae
  MIC: 1.56 µg/mL (≈ 1.63 µM)
[23]; Haemophilus influenzae
  MIC: 16 µg/mL (≈ 16.8 µM)
[21]; 1.5 g/gal equivalent
  Number of Deaths/Number tested: 10/10
[22]; Staphylococcus aureus, X1.1
  MIC: 0.25 µg/mL (≈ 0.262 µM)

## CCC1OC(=O)CC(O)C(C)C(OC2OC(C)C(O)C(N(C)C)C2O)C(CCOc2cc(Cl)cc(Cl)c2)CC(C)C(=O)C=CC(C)=CC1COC1OC(C)C(O)C(OC)C1OC (stereo not shown) [Compound 40, 20-DH-20-O-(3,5-Dichlorophenyl)desmycosin]
[1]; Streptococcus pneumoniae Park I, agar dilution
  MIC: 1 µg/mL (≈ 1.09 µM)
[2]; oral
  ED50, Oral: 31 mg/kg × 2
[2]; subcutaneous
  ED50, Subcutaneous: > 10 mg/kg × 2
[3]
  MIC: 0.39 µg/mL (≈ 0.424 µM)
[4]; Staphylococcus aureus S13E, agar dilution
  MIC: 0.25 µg/mL (≈ 0.272 µM)
[5]; Haemophilus influenzae R252, ampicillin-resistant strain, agar dilution
  MIC: 16 µg/mL (≈ 17.4 µM)
[6]; Pasteurella multocida 60A, avian isolate, broth-dilution microtiter
  MIC: 12.5 µg/mL (≈ 13.6 µM)
[7]; Streptococcus pyogenes C203, agar dilution
  MIC: 0.12 µg/mL (≈ 0.131 µM)
[8]
  MIC: < 0.05 µg/mL
[9]; Pasteurella multocida 17E, bovine isolate, broth-dilution microtiter
  MIC: 12.5 µg/mL (≈ 13.6 µM)
[10]; Streptococcus bovis 80, broth-dilution microtiter
  MIC: 3.12 µg/mL (≈ 3.4 µM)
[11]
  MIC: 0.12 µg/mL (≈ 0.131 µM)
[12]; Pasteurella hemolytica 22C, broth-dilution microtiter
  MIC: 12.5 µg/mL (≈ 13.6 µM)
[13]; Streptococcus Group 9960, agar dilution
  MIC: 8 µg/mL (≈ 8.71 µM)
[14]; Staphylococcus aureus V41, penicillin-resistant strain, agar dilution
  MIC: 0.25 µg/mL (≈ 0.272 µM)
[15]; Mycoplasma hyorhinis, broth-dilution microtiter
  MIC: 12.5 µg/mL (≈ 13.6 µM)
[16]; Staphylococcus epidermidis EPI1, agar dilution
  MIC: 0.25 µg/mL (≈ 0.272 µM)
[17]; Staphylococcus aureus X400, methicillin-resistant strain, agar dilution
  MIC: 0.25 µg/mL (≈ 0.272 µM)
[18]; Streptococcus Group D X66, agar dilution
  MIC: 4 µg/mL (≈ 4.35 µM)
[19]; Mycoplasma hyopneumoniae, broth-dilution microtiter
  MIC: 12.5 µg/mL (≈ 13.6 µM)
[20]; Mycoplasma synoviae, broth-dilution microtiter
  MIC: 0.19 µg/mL (≈ 0.207 µM)
[23]; Haemophilus influenzae Holt, ampicillin-sensitive strain, agar dilution
  MIC: 32 µg/mL (≈ 34.8 µM)
[21]; 1.5 g/gal equivalent
  Number of Deaths/Number tested: 10/10
[22]; Staphylococcus aureus X1.1, agar dilution
  MIC: 0.25 µg/mL (≈ 0.272 µM)
